In patent publication US8546414B2, “Ion channel modulators and methods of use” (Vertex Pharmaceuticals Incorporated, priority 2004, dated 2013):

Tests used:
Format in all cases: cell-based
NaV1.3 = target: T1, NaV1.3 (Homo sapiens, UniProt Q9NY46); test: VIPR optical membrane potential assay with electrical stimulation, NaV1.3; settings: Table 9, NaV 1.3 receptors
T1 construct: expressed in transfected cells; host or cells: HEK293
How it was run: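 HEK293 cells stably expressing NaV1.3, stained with CC2-DMPE (10 μM final) then DiSBAC2(3) with ABSC1, 30 min each at RT; compounds added with oxonol. Electrical stimulation for 3 s; 460/580 nm background-subtracted emission ratio Rf/Ri, normalised to tetracaine (positive) and untreated (negative) controls.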

NaV1.8 = NaV1.8 (Homo sapiens, UniProt Q9Y5Y9); test: VIPR optical membrane potential assay, NaV1.8 (other subtypes in an analogous mode); settings: Table 9, NaV 1.8 receptors
NaV1.8, sequence (Q9Y5Y9 whole entry): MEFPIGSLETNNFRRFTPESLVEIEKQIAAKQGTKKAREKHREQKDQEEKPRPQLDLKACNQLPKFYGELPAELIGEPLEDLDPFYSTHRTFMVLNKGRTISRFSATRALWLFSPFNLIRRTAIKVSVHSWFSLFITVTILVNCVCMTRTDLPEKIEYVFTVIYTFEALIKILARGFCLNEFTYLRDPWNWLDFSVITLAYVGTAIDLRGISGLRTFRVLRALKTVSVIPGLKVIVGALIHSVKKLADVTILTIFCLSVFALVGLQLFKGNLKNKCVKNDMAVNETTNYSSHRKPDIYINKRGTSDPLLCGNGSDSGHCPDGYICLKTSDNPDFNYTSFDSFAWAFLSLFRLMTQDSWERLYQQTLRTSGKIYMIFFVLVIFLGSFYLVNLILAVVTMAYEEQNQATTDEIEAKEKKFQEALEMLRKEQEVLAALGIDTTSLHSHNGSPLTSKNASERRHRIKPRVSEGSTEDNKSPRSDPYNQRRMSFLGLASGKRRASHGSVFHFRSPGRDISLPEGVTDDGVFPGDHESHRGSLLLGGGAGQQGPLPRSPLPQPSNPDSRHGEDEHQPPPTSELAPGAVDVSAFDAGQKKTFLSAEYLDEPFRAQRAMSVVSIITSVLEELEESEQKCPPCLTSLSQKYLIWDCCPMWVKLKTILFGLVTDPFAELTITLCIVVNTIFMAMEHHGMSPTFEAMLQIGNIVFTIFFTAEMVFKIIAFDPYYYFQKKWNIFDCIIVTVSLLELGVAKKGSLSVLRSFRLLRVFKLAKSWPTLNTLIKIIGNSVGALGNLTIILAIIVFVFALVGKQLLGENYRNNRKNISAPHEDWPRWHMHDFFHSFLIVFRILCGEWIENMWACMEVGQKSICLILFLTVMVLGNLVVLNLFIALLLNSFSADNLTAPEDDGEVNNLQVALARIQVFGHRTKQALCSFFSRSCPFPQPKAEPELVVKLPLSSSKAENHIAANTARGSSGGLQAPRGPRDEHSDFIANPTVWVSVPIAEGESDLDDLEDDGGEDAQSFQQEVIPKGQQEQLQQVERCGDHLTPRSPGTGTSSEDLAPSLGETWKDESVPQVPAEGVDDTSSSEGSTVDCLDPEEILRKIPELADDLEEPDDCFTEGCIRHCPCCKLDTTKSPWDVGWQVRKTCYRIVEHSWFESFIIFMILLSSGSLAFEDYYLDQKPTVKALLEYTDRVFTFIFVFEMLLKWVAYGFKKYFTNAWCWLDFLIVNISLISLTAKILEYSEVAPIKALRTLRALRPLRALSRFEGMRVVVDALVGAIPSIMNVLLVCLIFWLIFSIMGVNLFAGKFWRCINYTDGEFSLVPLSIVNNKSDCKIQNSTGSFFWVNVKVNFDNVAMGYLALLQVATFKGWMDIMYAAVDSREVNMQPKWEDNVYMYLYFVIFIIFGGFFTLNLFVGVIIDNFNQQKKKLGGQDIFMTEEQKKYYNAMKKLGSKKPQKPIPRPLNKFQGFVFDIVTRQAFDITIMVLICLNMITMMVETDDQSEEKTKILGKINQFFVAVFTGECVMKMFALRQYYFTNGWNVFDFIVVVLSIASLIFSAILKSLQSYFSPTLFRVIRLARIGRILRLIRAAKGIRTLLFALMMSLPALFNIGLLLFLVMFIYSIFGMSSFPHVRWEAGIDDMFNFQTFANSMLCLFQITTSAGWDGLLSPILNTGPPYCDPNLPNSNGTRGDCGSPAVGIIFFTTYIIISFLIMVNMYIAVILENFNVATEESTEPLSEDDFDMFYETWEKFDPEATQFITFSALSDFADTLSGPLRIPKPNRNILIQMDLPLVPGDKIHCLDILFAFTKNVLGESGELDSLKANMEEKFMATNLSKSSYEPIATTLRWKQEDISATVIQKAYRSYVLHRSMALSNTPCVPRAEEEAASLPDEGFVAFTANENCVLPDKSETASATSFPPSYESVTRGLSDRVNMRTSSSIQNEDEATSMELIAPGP
How it was run: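 Cells expressing the NaV subtype stained with coumarin and DiSBAC2(3) membrane-potential dyes, then incubated with test compound for 20-30 minutes. Depolarization evoked by sodium addback and read optically on VIPR; block measured as reduced membrane-potential response, with tetracaine as positive control.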

CaV2.2 = target: T2, CaV2.2 (Homo sapiens, UniProt Q00975); test: VIPR optical membrane potential assay with electrical stimulation, CaV2.2; settings: Table 9, CaV 2.2 receptors
T2 construct: expressed in transfected cells; host or cells: HEK293
How it was run: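 HEK293 cells stably expressing CaV2.2 stained with CC2-DMPE/DiSBAC2(3) voltage-sensitive dyes (10 μM final CC2-DMPE, 30 min, RT), then compound added and cells electrically stimulated for 3-5 s. Read-out: background-subtracted 460/580 nm emission ratio; response R=Rf/Ri (post- vs pre-stimulus ratio); antagonism seen as reduced response.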

T1 sequence (Q9NY46 whole entry): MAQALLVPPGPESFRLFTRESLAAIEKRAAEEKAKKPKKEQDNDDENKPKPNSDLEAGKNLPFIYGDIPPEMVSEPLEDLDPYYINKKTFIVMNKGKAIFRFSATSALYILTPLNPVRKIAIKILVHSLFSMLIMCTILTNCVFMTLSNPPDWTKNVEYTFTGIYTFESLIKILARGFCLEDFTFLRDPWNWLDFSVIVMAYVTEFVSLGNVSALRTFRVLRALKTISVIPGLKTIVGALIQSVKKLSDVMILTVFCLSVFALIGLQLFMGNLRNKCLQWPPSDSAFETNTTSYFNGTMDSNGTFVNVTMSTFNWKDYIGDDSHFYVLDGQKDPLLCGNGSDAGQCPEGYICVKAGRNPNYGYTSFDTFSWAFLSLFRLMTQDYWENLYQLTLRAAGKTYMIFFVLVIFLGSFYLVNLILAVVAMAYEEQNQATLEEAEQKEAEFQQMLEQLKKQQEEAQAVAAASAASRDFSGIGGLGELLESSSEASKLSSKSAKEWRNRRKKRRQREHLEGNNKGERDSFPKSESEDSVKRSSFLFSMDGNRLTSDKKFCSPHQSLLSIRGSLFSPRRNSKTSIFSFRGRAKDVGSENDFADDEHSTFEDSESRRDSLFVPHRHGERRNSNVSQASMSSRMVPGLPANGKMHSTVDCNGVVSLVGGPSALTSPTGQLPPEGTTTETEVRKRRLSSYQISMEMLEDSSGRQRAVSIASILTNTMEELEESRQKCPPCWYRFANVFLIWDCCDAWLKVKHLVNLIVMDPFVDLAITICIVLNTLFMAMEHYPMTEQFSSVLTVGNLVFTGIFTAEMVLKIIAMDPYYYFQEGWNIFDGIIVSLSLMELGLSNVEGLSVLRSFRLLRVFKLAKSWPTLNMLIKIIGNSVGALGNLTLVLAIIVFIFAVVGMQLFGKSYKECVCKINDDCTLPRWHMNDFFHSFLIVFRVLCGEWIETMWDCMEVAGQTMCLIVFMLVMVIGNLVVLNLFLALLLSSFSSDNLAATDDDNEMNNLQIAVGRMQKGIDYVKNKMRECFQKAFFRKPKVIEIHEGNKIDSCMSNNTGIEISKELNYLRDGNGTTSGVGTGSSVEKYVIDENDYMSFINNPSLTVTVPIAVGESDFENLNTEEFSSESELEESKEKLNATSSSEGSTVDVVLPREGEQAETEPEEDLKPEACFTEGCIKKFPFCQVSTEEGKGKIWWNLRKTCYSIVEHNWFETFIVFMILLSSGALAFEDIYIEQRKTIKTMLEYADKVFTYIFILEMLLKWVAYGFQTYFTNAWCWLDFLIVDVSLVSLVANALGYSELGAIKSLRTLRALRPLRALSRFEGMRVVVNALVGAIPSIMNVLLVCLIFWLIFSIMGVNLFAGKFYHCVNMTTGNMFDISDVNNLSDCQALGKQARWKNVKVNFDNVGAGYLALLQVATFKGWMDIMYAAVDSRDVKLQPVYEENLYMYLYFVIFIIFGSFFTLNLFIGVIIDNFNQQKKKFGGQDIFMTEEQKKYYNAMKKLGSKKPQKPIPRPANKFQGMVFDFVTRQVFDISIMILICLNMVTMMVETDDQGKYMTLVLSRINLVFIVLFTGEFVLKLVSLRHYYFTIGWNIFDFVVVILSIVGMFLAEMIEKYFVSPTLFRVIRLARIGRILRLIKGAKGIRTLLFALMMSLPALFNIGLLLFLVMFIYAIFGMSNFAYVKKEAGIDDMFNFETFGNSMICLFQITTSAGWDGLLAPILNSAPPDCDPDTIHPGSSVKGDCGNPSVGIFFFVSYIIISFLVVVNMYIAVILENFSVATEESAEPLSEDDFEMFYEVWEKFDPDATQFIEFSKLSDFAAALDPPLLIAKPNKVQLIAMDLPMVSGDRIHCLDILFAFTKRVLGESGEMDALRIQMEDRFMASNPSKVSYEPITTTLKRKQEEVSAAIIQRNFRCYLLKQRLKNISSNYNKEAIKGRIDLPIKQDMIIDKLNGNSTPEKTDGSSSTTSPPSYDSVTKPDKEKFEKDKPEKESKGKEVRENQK

| SMILES | IC50 (NaV1.3) [µM] | IC50 (NaV1.8) [µM] | IC50 (CaV2.2) [µM] |
| --- | --- | --- | --- |
| O=C(c1cnc(N2CCOCC2)nc1-c1ccccc1F)N(Cc1ccccc1)C1CCC1 [compound 26] | 2 to 10 | > 10 | 2 to 10 |
| O=C(c1cnc(N2CCCCC2)nc1-c1ccccc1F)N(Cc1ccccc1)C1CCCC1 [compound 136] | 2 to 10 | > 10 | 2 to 10 |
| CC(C)N(Cc1cccc(O)c1)C(=O)c1cnc(N2CCOCC2)nc1-c1ccccc1F [compound 5] | > 10 | > 10 | 2 to 10 |
| O=C(NC1CCCCC1)c1cnc(N2CCOCC2)nc1-c1ccccc1F [compound 196] | > 10 | > 10 | > 10 |
| COc1cccc(N(C(=O)c2cnc(N3CCC4CCCCC4C3)nc2-c2ccccc2F)C2CCCC2)c1 (stereo not drawn) [compound 154] | > 10 | > 10 | 2 to 10 |
| CC1COc2ccccc2N1C(=O)c1cnc(N2CCOCC2)nc1-c1ccccc1F (stereo not drawn) [compound 84] | > 10 | > 10 | > 10 |
| O=C(NCCCc1ccccc1)c1cnc(N2CCOCC2)nc1-c1ccc(Oc2ccccc2)cc1 [compound 46] | > 10 | > 10 | > 10 |
| COc1ccc(CN(C(=O)c2cnc(N3CCOCC3)nc2-c2ccccc2F)C2CC2)cc1 [compound 142] | < 2 | < 2 | < 2 |
| O=C(c1cnc(N2CCCCC2)nc1-c1ccccc1F)N(Cc1ccc2c(c1)CCO2)C1CC1 [compound 77] | 2 to 10 | > 10 | 2 to 10 |
| CC(C)N(C(=O)c1cnc(N2CCCCC2)nc1-c1ccccc1F)c1ccccc1 [compound 93] | 2 to 10 | > 10 | 2 to 10 |
| CC(C)N(Cc1ccc(C(C)(C)C)cc1)C(=O)c1cnc(N2CCCCC2)nc1-c1ccccc1F [compound 122] | > 10 | > 10 | 2 to 10 |
| O=C(NC1Cc2ccccc2C1)c1cnc(N2CCOCC2)nc1-c1ccccc1F [compound 33] | > 10 | > 10 | > 10 |
| CC(C)N(C(=O)c1cnc(N2CCCCC2)nc1-c1ccccc1F)c1cccc(C(C)(C)C)c1 [compound 41] | 2 to 10 | > 10 | > 10 |
| CC(C)N(C(=O)c1cnc(N2CCCCC2)nc1-c1ccccc1F)c1cccc(N(C)C)c1 [compound 152] | 2 to 10 | > 10 | 2 to 10 |
| COc1cccc(N(C(=O)c2cnc(N3CCCCC3)nc2-c2ccccc2F)C2CC2)c1 [compound 158] | > 10 | > 10 | > 10 |
| COc1ccc(N(C(=O)c2cnc(N3CCOCC3)nc2-c2ccccc2F)C(C)C)cc1 [compound 185] | > 10 | > 10 | 2 to 10 |
| O=C(c1cnc(N2CCOCC2)nc1-c1ccccc1F)N1CC=C(c2ccccc2)CC1 [compound 91] | > 10 | > 10 | > 10 |
| CC(C)N(Cc1ccccc1)C(=O)c1cnc(N2CCOCC2)nc1-c1ccc(Oc2ccccc2)cc1 [compound 123] | > 10 | > 10 | 2 to 10 |
| CN1CCN(c2ncc(C(=O)N(Cc3ccccc3)C3CCC3)c(-c3ccccc3F)n2)CC1 [compound 180] | 2 to 10 | > 10 | 2 to 10 |
| CC(C)N(C(=O)c1cnc(N2CCOCC2)nc1-c1ccccc1F)c1cccc(N(C)C)c1 [compound 111] | > 10 | > 10 | > 10 |
| COc1cccc(N(C(=O)c2cnc(N3CCC4CCCCC4C3)nc2-c2ccccc2F)C2CC2)c1 (stereo not drawn) [compound 189] | > 10 | > 10 | 2 to 10 |
| O=C(c1cnc(N2CCOCC2)nc1-c1ccccc1F)N(Cc1cccc(-c2ccncc2)c1)C1CC1 [compound 60] | > 10 | > 10 | 2 to 10 |
| CC(C)N(Cc1ccccc1)C(=O)c1cnc(N2CCOCC2)nc1-c1ccccc1Cl [compound 194, N-benzyl-4-(2-chlorophenyl)-N-isopropyl-2-morpholinopyrimidine-5-carboxamide] | 2 to 10 | 2 to 10 | < 2 |
| CC(C)N(Cc1ccccc1)C(=O)c1cnc(NCC(=O)O)nc1-c1ccccc1F [compound 153] | > 10 | > 10 | > 10 |
| CC(C)N(Cc1ccccc1)C(=O)c1cnc(Nc2cccc(Cl)c2)nc1-c1ccccc1F [compound 177] | > 10 | > 10 | > 10 |
| O=C(c1cnc(N2CCOCC2)nc1-c1ccccc1F)N(Cc1cnc2ccccc2c1)C1CC1 [compound 99] | > 10 | > 10 | > 10 |

| SMILES | IC50 (NaV1.3) [µM] | IC50 (NaV1.8) [µM] | IC50 (CaV2.2) [µM] |
| --- | --- | --- | --- |
| COc1cccc(N(C(=O)c2cnc(N3CCC4CCCCC4C3)nc2-c2ccccc2F)C2CCOCC2)c1 (stereo not drawn) [compound 68] | > 10 | > 10 | 2 to 10 |
| O=C(NC1CC1)c1cnc(N2CCOCC2)nc1-c1ccccc1F [compound 79] | > 10 | > 10 | > 10 |
| Cc1ccc(Nc2ncc(C(=O)N(Cc3ccccc3)C(C)C)c(-c3ccccc3F)n2)cc1 [compound 63] | > 10 | > 10 | > 10 |
| CC(C)N(Cc1ccccc1)C(=O)c1cnc(NC2CC3CCC2C3)nc1-c1ccccc1F (stereo not drawn) [compound 29] | 2 to 10 | 2 to 10 | < 2 |
| CC(C)N(Cc1ccccc1)C(=O)c1cnc(N2CCCCC2)nc1-c1ccccc1Cl [compound 1] | 2 to 10 | 2 to 10 | < 2 |
| CN(CCc1ccccc1)C(=O)c1cnc(N2CCOCC2)nc1-c1ccccc1F [compound 199] | > 10 | > 10 | > 10 |
| O=C(c1cnc(N2CCCCC2)nc1-c1ccccc1F)N(Cc1ccccc1)C1CC1 [compound 90] | 2 to 10 | 2 to 10 | 2 to 10 |
| CC(C)N(C(=O)c1cnc(N2CCSCC2)nc1-c1ccccc1F)c1ccccc1 [compound 201] | 2 to 10 | > 10 | 2 to 10 |
| COc1cccc(N(C(=O)c2cnc(N3CCCCC3)nc2-c2ccccc2F)C(C)C)c1 [compound 133] | 2 to 10 | > 10 | 2 to 10 |
| COc1ccc(CN(C(=O)c2cnc(N3CCN(C)CC3)nc2-c2ccccc2F)C2CC2)cc1 [compound 193] | > 10 | > 10 | > 10 |
| COc1cccc(N(C(=O)c2cnc(N3CCCCC3)nc2-c2ccccc2F)C2CCC2)c1 [compound 116] | 2 to 10 | > 10 | 2 to 10 |
| O=C(c1cnc(N2CCSCC2)nc1-c1ccccc1F)N(Cc1ccccc1)C1CCC1 [compound 80] | 2 to 10 | > 10 | 2 to 10 |
| COc1cccc(CN(C(=O)c2cnc(NC(C)c3ccccc3)nc2-c2ccccc2F)C(C)C)c1 (stereo not drawn) [compound 188] | < 2 | 2 to 10 | < 2 |
| COc1cccc(OC)c1-c1nc(N2CCOCC2)ncc1C(=O)N(Cc1ccccc1)C(C)C [compound 89] | > 10 | > 10 | > 10 |
| CCCN(CC1CC1)c1ncc(C(=O)N(Cc2cccc(OC)c2)C(C)C)c(-c2ccccc2F)n1 [compound 4] | 2 to 10 | 2 to 10 | < 2 |
| COc1cccc(N(C(=O)c2cnc(N3CCOCC3)nc2-c2ccccc2F)C2CC2)c1 [compound 183] | > 10 | > 10 | > 10 |
| CC(C)N(Cc1ccccc1)C(=O)c1cnc(N2CCOCC2)nc1-c1cc(F)cc(F)c1 [compound 139] | 2 to 10 | 2 to 10 | 2 to 10 |
| Cc1nc(N2CCOCC2)nc(-c2ccccc2F)c1C(=O)N(Cc1ccc(F)cc1)C1CC1 [compound 9] | 2 to 10 | > 10 | 2 to 10 |
| O=C(c1cnc(N2CCOCC2)nc1-c1ccccc1F)N1Cc2ccccc2C1 [compound 187] | > 10 | > 10 | > 10 |
| CC(C)(C)c1ccc(CN(C(=O)c2cnc(N3CCSCC3)nc2-c2ccccc2F)C2CC2)cc1 [compound 2] | > 10 | > 10 | 2 to 10 |
| COc1cccc(N(C(=O)c2cnc(N3CCCCC3)nc2-c2ccccc2Cl)C2CCOCC2)c1 [compound 203] | > 10 | > 10 | > 10 |
| COc1ccc(N(C(=O)c2cnc(N3CCCCC3)nc2-c2ccccc2F)C(C)C)cc1 [compound 108] | 2 to 10 | > 10 | < 2 |
| CCC(=O)C1(c2ccccc2)CCN(C(=O)c2cnc(N3CCOCC3)nc2-c2ccccc2F)CC1 [compound 57] | > 10 | > 10 | > 10 |
| COc1cccc(N(C(=O)c2c(C)nc(N3CCOCC3)nc2-c2ccccc2F)C(C)C)c1 [compound 21] | > 10 | > 10 | > 10 |
| CC(C)N(Cc1ccccc1)C(=O)c1cnc(Nc2ccc(F)cc2)nc1-c1ccccc1F [compound 181] | > 10 | > 10 | > 10 |
| CC(C)(C)c1ccc(CN(C(=O)c2cnc(N3CCOCC3)nc2-c2ccccc2F)C2CC2)cc1 [compound 161] | 2 to 10 | 2 to 10 | 2 to 10 |
